Data on ten molecules can be found in patent US12295936B2, “Immunomodulating urea azalides” (Zoetis Services LLC, priority 2020, dated 2025).

In this experiment the test system is BRD pathogens, M. haemolytica and P. multocida. Put plainly: MIC screening panel of BRD pathogens (antibacterial / non-antibacterial). Particulars: read-out: antibacterial / non-antibacterial (MIC for the BRD pathogens).
As to `CC[C@H]1OC(=O)[C@H](C)[C@@H](O)[C@H](C)[C@@H](O[C@@H]2O[C@H](C)C[C@H](N(C)C(=O)Nc3ccc(F)cc3)[C@H]2O)[C@](C)(O)C[C@@H](C)CN[C@H](C)[C@@H](O)[C@]1(C)O` [Example A-18, 1-((2S,3R,4S,6R)-2-(((2R,3S,4R,5R,8R,10R,11R,12S,13S,14R)-2-ethyl-3,4,10,13-tetrahydroxy-3,5,8,10,12,14-hexamethyl-15-oxo-1-oxa-6-azacyclopentadecan-11-yl)oxy)-3-hydroxy-6-methyltetrahydro-2H-pyran-4-yl)-3-(4-fluorophenyl)-1-methylurea], the MIC was above 64 µg/mL.
As for `CC[C@H]1OC(=O)[C@H](C)[C@@H](O)[C@H](C)[C@@H](O[C@@H]2O[C@H](C)C[C@H](N(C)C(=O)Nc3ccc(Cl)cc3)[C@H]2O)[C@](C)(O)C[C@@H](C)CN[C@H](C)[C@@H](O)[C@]1(C)O` [Example A-19, 3-(4-chlorophenyl)-1-((2S,3R,4S,6R)-2-(((2R,3S,4R,5R,8R,10R,11R,12S,13S,14R)-2-ethyl-3,4,10,13-tetrahydroxy-3,5,8,10,12,14-hexamethyl-15-oxo-1-oxa-6-azacyclopentadecan-11-yl)oxy)-3-hydroxy-6-methyltetrahydro-2H-pyran-4-yl)-1-methylurea], the MIC was above 64 µg/mL.
The result for `CC[C@H]1OC(=O)[C@H](C)[C@@H](O)[C@H](C)[C@@H](O[C@@H]2O[C@H](C)C[C@H](N(C)C(=O)Nc3cccc(F)c3)[C@H]2O)[C@](C)(O)C[C@@H](C)CN[C@H](C)[C@@H](O)[C@]1(C)O` [Example A-20, 1-((2S,3R,4S,6R)-2-(((2R,3S,4R,5R,8R,10R,11R,12S,13S,14R)-2-ethyl-3,4,10,13-tetrahydroxy-3,5,8,10,12,14-hexamethyl-15-oxo-1-oxa-6-azacyclopentadecan-11-yl)oxy)-3-hydroxy-6-methyltetrahydro-2H-pyran-4-yl)-3-(3-fluorophenyl)-1-methylurea] reads above 64 µg/mL; that for `CC[C@H]1OC(=O)[C@H](C)[C@@H](O)[C@H](C)[C@@H](O[C@@H]2O[C@H](C)C[C@H](N(C)C(=O)Nc3cccc(OC)c3)[C@H]2O)[C@](C)(O)C[C@@H](C)CN[C@H](C)[C@@H](O)[C@]1(C)O` [Example A-21, 1-((2S,3R,4S,6R)-2-(((2R,3S,4R,5R,8R,10R,11R,12S,13S,14R)-2-ethyl-3,4,10,13-tetrahydroxy-3,5,8,10,12,14-hexamethyl-15-oxo-1-oxa-6-azacyclopentadecan-11-yl)oxy)-3-hydroxy-6-methyltetrahydro-2H-pyran-4-yl)-3-(3-methoxyphenyl)-1-methylurea], above 64 µg/mL; that for `CC[C@H]1OC(=O)[C@H](C)[C@@H](O)[C@H](C)[C@@H](O[C@@H]2O[C@H](C)C[C@H](N(C)C(=O)Nc3cccc(Cl)c3)[C@H]2O)[C@](C)(O)C[C@@H](C)CN[C@H](C)[C@@H](O)[C@]1(C)O` [Example A-23, 3-(3-chlorophenyl)-1-((2S,3R,4S,6R)-2-(((2R,3S,4R,5R,8R,10R,11R,12S,13S,14R)-2-ethyl-3,4,10,13-tetrahydroxy-3,5,8,10,12,14-hexamethyl-15-oxo-1-oxa-6-azacyclopentadecan-11-yl)oxy)-3-hydroxy-6-methyltetrahydro-2H-pyran-4-yl)-1-methylurea], above 64 µg/mL.
`CC[C@H]1OC(=O)[C@H](C)[C@@H](O)[C@H](C)[C@@H](O[C@@H]2O[C@H](C)C[C@H](N(C)C(=O)Nc3ccc(C)cc3)[C@H]2O)[C@](C)(O)C[C@@H](C)CN[C@H](C)[C@@H](O)[C@]1(C)O` [Example A-24, 1-((2S,3R,4S,6R)-2-(((2R,3S,4R,5R,8R,10R,11R,12S,13S,14R)-2-ethyl-3,4,10,13-tetrahydroxy-3,5,8,10,12,14-hexamethyl-15-oxo-1-oxa-6-azacyclopentadecan-11-yl)oxy)-3-hydroxy-6-methyltetrahydro-2H-pyran-4-yl)-1-methyl-3-(p-tolyl)urea]: the MIC was above 64 µg/mL.
Turning to `CC[C@H]1OC(=O)[C@H](C)[C@@H](O)[C@H](C)[C@@H](O[C@@H]2O[C@H](C)C[C@H](N(C)C(=O)Nc3cccc(C)c3)[C@H]2O)[C@](C)(O)C[C@@H](C)CN[C@H](C)[C@@H](O)[C@]1(C)O` [Example A-25, 1-((2S,3R,4S,6R)-2-(((2R,3S,4R,5R,8R,10R,11R,12S,13S,14R)-2-ethyl-3,4,10,13-tetrahydroxy-3,5,8,10,12,14-hexamethyl-15-oxo-1-oxa-6-azacyclopentadecan-11-yl)oxy)-3-hydroxy-6-methyltetrahydro-2H-pyran-4-yl)-1-methyl-3-(m-tolyl)urea], the MIC was above 64 µg/mL.
As for `CC[C@H]1OC(=O)[C@H](C)[C@@H](O)[C@H](C)[C@@H](O[C@@H]2O[C@H](C)C[C@H](N(C)C(=O)N(C)c3ccccc3)[C@H]2O)[C@](C)(O)C[C@@H](C)CN[C@H](C)[C@@H](O)[C@]1(C)O` [Example A-26, 1-((2S,3R,4S,6R)-2-(((2R,3S,4R,5R,8R,10R,11R,12S,13S,14R)-2-ethyl-3,4,10,13-tetrahydroxy-3,5,8,10,12,14-hexamethyl-15-oxo-1-oxa-6-azacyclopentadecan-11-yl)oxy)-3-hydroxy-6-methyltetrahydro-2H-pyran-4-yl)-1,3-dimethyl-3-phenylurea], the MIC was above 64 µg/mL.
For the molecule `CC[C@H]1OC(=O)[C@H](C)[C@@H](O[C@H]2C[C@@](C)(OC)[C@@H](O)[C@H](C)O2)[C@H](C)[C@@H](O[C@@H]2O[C@H](C)C[C@H](N(C)C(=O)NC3CCCCC3)[C@H]2O)[C@](C)(O)C[C@@H](C)CN(C)[C@H](C)[C@@H](O)[C@]1(C)O` [Example B-10, 3-cyclohexyl-1-((2S,3R,4S,6R)-2-(((2R,3S,4R,5R,8R,10R,11R,12S,13S,14R)-2-ethyl-3,4,10-trihydroxy-13-(((2R,4R,5S,6S)-5-hydroxy-4-methoxy-4,6-dimethyltetrahydro-2H-pyran-2-yl)oxy)-3,5,6,8,10,12,14-heptamethyl-15-oxo-1-oxa-6-azacyclopentadecan-11-yl)oxy)-3-hydroxy-6-methyltetrahydro-2H-pyran-4-yl)-1-methylurea], the MIC is above 64 µg/mL.
For `CC[C@H]1OC(=O)[C@H](C)[C@@H](O[C@H]2C[C@@](C)(OC)[C@@H](O)[C@H](C)O2)[C@H](C)[C@@H](O[C@@H]2O[C@H](C)C[C@H](N(C)C(=O)NC(C)(C)C)[C@H]2O)[C@](C)(O)C[C@@H](C)CN(C)[C@H](C)[C@@H](O)[C@]1(C)O` [Example B-11, 3-(tert-butyl)-1-((2S,3R,4S,6R)-2-(((2R,3S,4R,5R,8R,10R,11R,12S,13S,14R)-2-ethyl-3,4,10-trihydroxy-13-(((2R,4R,5S,6S)-5-hydroxy-4-methoxy-4,6-dimethyltetrahydro-2H-pyran-2-yl)oxy)-3,5,6,8,10,12,14-heptamethyl-15-oxo-1-oxa-6-azacyclopentadecan-11-yl)oxy)-3-hydroxy-6-methyltetrahydro-2H-pyran-4-yl)-1-methylurea], the MIC is above 64 µg/mL.
